Structures are written as SMILES.

The term melting point denotes the temperature, or range, at which the solid turns liquid.

For the compound `CC(C)(C)C(=O)NC(Cc1ccc(C(F)(F)F)cc1)C(O)c1ccc(F)cc1` (racemic) [Example 16, N-[2-(4-fluorophenyl)-2-hydroxy-1-[[4-(trifluoromethyl)phenyl]methyl]ethyl]-2,2-dimethylpropionamide], the melting point was 97 to 99 °C. Compound `O=C(N[C@H](Cc1cccc(OC(F)(F)C(F)F)c1)[C@@H](O)c1ccc(Oc2ccccc2)cn1)c1cccc2c1C=CCCC2` (racemic) [Example 255, N-{(1RS,2RS)-2-hydroxy-2-(5-phenoxypyridin-2-yl)-1-[3-(1,1,2,2-tetrafluoroethoxy)benzyl]ethyl}-6,7-dihydro-5H-benzo[a][7]annulene-1-carboxamide] came in with a melting point of 147 to 148 °C. The result for `CC(C)(C)OC(=O)N[C@H](Cc1ccc(CC(F)(F)C(F)(F)F)cc1)[C@@H](O)c1cccc(Cl)c1` (racemic) [Example 372, tert-butyl (1RS,2SR)-2-(3-chlorophenyl)-2-hydroxy-1-[4-(2,2,3,3,3-pentafluoropropyl)benzyl]ethylcarbamate] reads 156 to 157 °C.

Regarding `O=C(N[C@H](Cc1ccc(C(F)(F)F)cc1)[C@@H](O)c1ccc(F)cc1)c1cccc2c(Cl)cccc12` (racemic) [Example 37, 5-chloro-N-[(1RS,2SR)-2-(4-fluorophenyl)-2-hydroxy-1-[4-(trifluoromethyl)benzyl]ethyl]naphthalene-1-carboxamide], the melting point lay within 211 to 212 °C. For `O=C(N[C@H](Cc1ccc(C(F)(F)F)cc1)[C@@H](O)c1ccc(F)cc1)C(c1ccccc1)C1CCCC1` (mixture of isomers) [Example 110, 2-cyclopentyl-N-[(1RS,2SR)-2-(4-fluorophenyl)-2-hydroxy-1-[4-(trifluoromethyl)benzyl]ethyl]-2-phenylacetamide] the value was 201 to 202 °C; for `O=C(N[C@H](Cc1ccc(F)cc1)[C@@H](O)c1ccc(F)cc1)c1cccc2ccccc12` (racemic) [Example 144, N-((1RS,2SR)-2-(4-fluorophenyl)-1-((4-fluorophenyl)methyl)-2-hydroxyethyl)-1-naphthalenecarboxamide], 199 to 200 °C. For the compound `CC(C)(C)Cc1ccc(C[C@@H](NC(=O)c2ccc(F)c3ccccc23)[C@@H](O)c2cccc(Cl)c2)cc1` (racemic) [Example 345, 4-fluoro-N-[(1RS,2SR)-2-(3-chlorophenyl)-2-hydroxy-1-(4-neopentylbenzyl)ethyl]naphthalene-1-carboxamide], the melting point lay in the range of 150 to 151 °C. For the compound `CC(C)Oc1ccc([C@H](O)[C@@H](Cc2cccc(OC(F)(F)C(F)F)c2)NC(=O)c2cccc3c2C=CCCC3)cc1` (racemic) [Example 243, N-{(1RS,2SR)-2-hydroxy-2-(4-isopropoxyphenyl)-1-[3-(1,1,2,2-tetrafluoroethoxy)benzyl]ethyl}-6,7-dihydro-5H-benzo[a][7]annulene-1-carboxamide], the melting point is 134 to 135 °C. The result for `CCOc1ccc2ccccc2c1C(=O)N[C@H](Cc1ccc(C(F)(F)F)cc1)[C@H](O)c1ccc(F)cc1` (racemic) [Example 25, 2-(ethyloxy)-N-((1RS,2RS)-2-(4-fluorophenyl)-2-hydroxy-1-((4-(trifluoromethyl)phenyl)methyl)ethyl)-1-naphthalenecarboxamide] reads 186 to 187 °C; that for `O=C(Nc1cccc2ccccc12)N[C@H](Cc1ccc(C(F)(F)F)cc1)[C@@H](O)c1ccc(F)cc1` (racemic) [Example 118, N-((1RS,2SR)-2-(4-fluorophenyl)-2-hydroxy-1-((4-(trifluoromethyl)phenyl)methyl)ethyl)-N′-(1-naphthalenyl)urea], 222 to 223 °C.

`O=C(N[C@H](Cc1ccc(C(F)(F)F)cc1)[C@@H](O)c1ccc(F)cc1)c1cccc2c1C(=O)c1ccccc1-2` (racemic) [Example 85, N-((1RS,2SR)-2-(4-fluorophenyl)-2-hydroxy-1-((4-(trifluoromethyl)phenyl)methyl)ethyl)-9-oxo-9H-fluorene-1-carboxamide] displayed a melting point of 185 to 186 °C. In turn, `CC(C)(C)Oc1ccc(C[C@@H](NC(=O)c2cccc3c2C=CCCC3)[C@@H](O)c2cccc(Cl)c2)cc1` (racemic) [Example 276, N-[(1RS,2SR)-1-(4-tert-butoxybenzyl)-2-(3-chlorophenyl)-2hydroxyethyl]-6,7-dihydro-5H-benzo[a][7]annulene-1-carboxamide] displayed a melting point of 180 to 181 °C. Consider `O=C(NC(Cc1ccc(C(F)(F)F)cc1)C(O)c1ccc(F)cc1)c1cccs1` (racemic) [Example 11, N-[2-(4-fluorophenyl)-2-hydroxy-1-[[4-(trifluoromethyl)phenyl]methyl]ethyl]-2-thiophenecarboxamide], for which the melting point was in the range of 135 to 164 °C. In turn, `CC(C)Oc1cccc(C[C@@H](NC(=O)c2cccc3c2C=CCCC3)[C@@H](O)c2ccc(F)cc2)c1` (racemic) [Example 282, N-[(1RS,2SR)-2-(4-fluorophenyl)-2-hydroxy-1-(3-isopropoxybenzyl)ethyl]-6,7-dihydro-5H-benzo[a]cycloheptene-1-carboxamide] registered a melting point of 161 to 162 °C. For `O=C(N[C@H](Cc1ccc(C(F)(F)F)cc1)[C@@H](O)c1ccccc1)c1ccc(F)c2ccccc12` (racemic) [Example 174, 4-fluoro-N-((1RS,2SR)-2-hydroxy-2-phenyl-1-((4-(trifluoromethyl)phenyl)methyl)ethyl)-1-naphthalenecarboxamide] the value was 217 to 218 °C; for `O=C(N[C@H](Cc1cccc(OC(F)(F)C(F)F)c1)[C@@H](O)c1ccc(-c2ccsc2)cc1)c1cccc2c1C=CCCC2` (racemic) [Example 292, N-[(1RS,2SR)-2-hydroxy-1-[3-(1,1,2,2-tetrafluoroethoxy)benzyl]-2-[4-(3-thienyl)phenyl]ethyl]-6,7-dihydro-5H-benzo[a]cycloheptene-1-carboxamide], 178 to 179 °C; for `O=C(N[C@H](Cc1cccc(OC(F)(F)C(F)F)c1)[C@@H](O)c1cccc(F)c1)c1cccc2c1C=CCCC2` (racemic) [Example 235, N-((1RS,2SR)-2-(3-fluorophenyl)-2-hydroxy-1-[3-(1,1,2,2-tetrafluoroethoxy)benzyl]ethyl)-6,7-dihydro-5H-benzo[a][7]annulene-1-carboxamide], 150 to 155 °C. With `O=C(N[C@H](Cc1cccc(OC(F)(F)C(F)F)c1)[C@@H](O)c1ccc(-c2ccccc2)nc1)c1cccc2c1C=CCCC2` (racemic) [Example 330, N-[(1RS,2SR)-2-hydroxy-2-(6-phenylpyridin-3-yl)-1-[3-(1,1,2,2-tetrafluoroethoxy)benzyl]ethyl]-6,7-dihydro-5H-benzo[a]cycloheptene-1-carboxamide], the melting point is 174 to 175 °C. As to `O=C(N[C@H](Cc1ccc(C(F)(F)F)cc1)[C@@H](O)c1ccc(F)cc1)c1cccc2cc([N+](=O)[O-])ccc12` (racemic) [Example 51, N-[(1RS,2SR)-2-(4-fluorophenyl)-2-hydroxy-1-[4-(trifluoromethyl)benzyl]ethyl]-6-nitronaphthalene-1-carboxamide], the melting point lay within 206 to 207 °C.

`O=C(N[C@H](Cc1cccc(C(F)(F)F)c1)[C@@H](O)c1ccc(F)cc1)C1CCCCC1` (racemic) [Example 138, N-((1RS,2SR)-2-(4-fluorophenyl)-2-hydroxy-1-((3-(trifluoromethyl)phenyl)methyl)ethyl)cyclohexanecarboxamide] came in with a melting point of 190 to 191 °C. `O=C(N[C@H](Cc1ccc(C(F)(F)F)cc1)[C@@H](O)c1ccc(F)cc1)c1ccc([N+](=O)[O-])c2c1CCCC2` (racemic) [Example 38, N-[(1RS,2SR)-2-(4-fluorophenyl)-2-hydroxy-1-[4-(trifluoromethyl)benzyl]ethyl]-4-nitro-5,6,7,8-tetrahydronaphthalene-1-carboxamide] had a melting point of 207 to 209 °C. The result for `O=C(N[C@H](Cc1ccc(CC(F)(F)C(F)(F)F)cc1)[C@@H](O)c1cccc(Cl)c1)c1cccc2c1C=CCCC2` (racemic) [Example 374, N-[(1RS,2SR)-1-[4-(2,2,3,3,3-pentafluoropropyl)benzyl]-2-(3-chlorophenyl)-2-hydroxyethyl]-6,7-dihydro-5H-benzo[a]cycloheptene-1-carboxamide] reads 176 to 177 °C. The compound `COc1ccc(C[C@@H](NC(=O)c2cccc3ccccc23)[C@@H](O)c2ccc(F)cc2)cc1` (racemic) [Example 148, N-((1RS,2SR)-2-(4-fluorophenyl)-2-hydroxy-1-((4-(methyloxy)phenyl)methyl)ethyl)-1-naphthalenecarboxamide] gave a melting point of 198 to 199 °C. In the case of `O=C(N[C@H](Cc1ccc(C(F)(F)F)cc1)[C@@H](O)c1ccc(F)cc1)c1ccc(C(=O)c2ccc(F)cc2)cc1` (racemic) [Example 88, 4-(4-fluorobenzoyl)-N-[(1RS,2SR)-2-(4-fluorophenyl)-2-hydroxy-1-[4-(trifluoromethyl)benzyl]ethyl]benzenecarboxamide], the melting point lay in the range of 156 to 157 °C. The compound `CC(C)(C)Cc1ccc(C[C@@H](NC(=O)c2cccc3c2C=CCCC3)[C@@H](O)c2cccc(Cl)c2)cc1` (racemic) [Example 344, N-[(1RS,2SR)-2-(3-chlorophenyl)-2-hydroxy-1-(4-neopentylbenzyl)ethyl]-6,7-dihydro-5H-benzo[a]cycloheptene-1-carboxamide] showed a melting point of 147 to 149 °C. Compound `O=Cc1ccc(-c2ccc([C@H](O)[C@@H](Cc3cccc(OC(F)(F)C(F)F)c3)NC(=O)c3cccc4c3C=CCCC4)cc2)cc1` (racemic) [Example 299, N-[(1RS,2SR)-2-(4′-formyl[1,1′-biphenyl]-4-yl)-2-hydroxy-1-[3-(1,1,2,2-tetrafluoroethoxy)benzyl]ethyl]-6,7-dihydro-5H-benzo[a]cycloheptene-1-carboxamide] gave a melting point of 174 to 176 °C. For `O=C(N[C@H](Cc1ccc(C(F)(F)F)cc1)[C@@H](O)c1ccc(F)cc1)c1cccc2cccc(Br)c12` (racemic) [Example 87, 8-bromo-N-((1RS,2SR)-2-(4-fluorophenyl)-2-hydroxy-1-((4-(trifluoromethyl)phenyl)methyl)ethyl)-1-naphthalenecarboxamide], the melting point is 191 to 192 °C.

The values above are taken from patent US6982348B2, “Aminoethanol derivatives” (Takeda Pharmaceutical Company Limited, priority 2001, dated 2006).
